Results as given in patent publication US12559506B2, “Indazole based compounds and associated methods of use” (Arvinas Operations, Inc., priority 2021, dated 2026).
Read-outs that look alike come from different tables or passages of the source.

Target: T1, LRRK2 (endogenous, HiBit tagged) (Homo sapiens, UniProt Q5S007)
T1 construct: endogenous in cells; host or cells: HEK293 cells with HiBit knock-in at the endogenous LRRK2 locus, stably expressing firefly luciferase
Experiment: Endogenous LRRK2 degradation assay, endogenous gene C-terminally HiBit-tagged in HEK293 cells (Nano-Glo Dual Luciferase)
Assay type: cell-based
In short: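 LRRK2-HiBit quantified via Nano-Glo Dual Luciferase in HEK293 knock-in cells co-expressing firefly luciferase, after 24 h exposure to compound (1 μM final top, 1:3, 11 points). Values normalised to DMSO median per plate and curve-fitted; Alamar Blue viability run alongside.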

[1] = endogenous HiBit-tagged LRRK2 in HEK293 cells, 24 hours treatment, read-out: **Endogenous WT Dmax (%)
[2] = endogenous HiBit-tagged LRRK2 in HEK293 cells, 24 hours treatment, read-out: *Endogenous WT DC50
[3] = endogenous HiBit-tagged LRRK2 in HEK293 cells, 24 hours treatment, read-out: Endogenous WT DC50
[4] = endogenous HiBit-tagged LRRK2 in HEK293 cells, 24 hours treatment, read-out: Endogenous WT Dmax

T1 sequence (Q5S007 whole entry): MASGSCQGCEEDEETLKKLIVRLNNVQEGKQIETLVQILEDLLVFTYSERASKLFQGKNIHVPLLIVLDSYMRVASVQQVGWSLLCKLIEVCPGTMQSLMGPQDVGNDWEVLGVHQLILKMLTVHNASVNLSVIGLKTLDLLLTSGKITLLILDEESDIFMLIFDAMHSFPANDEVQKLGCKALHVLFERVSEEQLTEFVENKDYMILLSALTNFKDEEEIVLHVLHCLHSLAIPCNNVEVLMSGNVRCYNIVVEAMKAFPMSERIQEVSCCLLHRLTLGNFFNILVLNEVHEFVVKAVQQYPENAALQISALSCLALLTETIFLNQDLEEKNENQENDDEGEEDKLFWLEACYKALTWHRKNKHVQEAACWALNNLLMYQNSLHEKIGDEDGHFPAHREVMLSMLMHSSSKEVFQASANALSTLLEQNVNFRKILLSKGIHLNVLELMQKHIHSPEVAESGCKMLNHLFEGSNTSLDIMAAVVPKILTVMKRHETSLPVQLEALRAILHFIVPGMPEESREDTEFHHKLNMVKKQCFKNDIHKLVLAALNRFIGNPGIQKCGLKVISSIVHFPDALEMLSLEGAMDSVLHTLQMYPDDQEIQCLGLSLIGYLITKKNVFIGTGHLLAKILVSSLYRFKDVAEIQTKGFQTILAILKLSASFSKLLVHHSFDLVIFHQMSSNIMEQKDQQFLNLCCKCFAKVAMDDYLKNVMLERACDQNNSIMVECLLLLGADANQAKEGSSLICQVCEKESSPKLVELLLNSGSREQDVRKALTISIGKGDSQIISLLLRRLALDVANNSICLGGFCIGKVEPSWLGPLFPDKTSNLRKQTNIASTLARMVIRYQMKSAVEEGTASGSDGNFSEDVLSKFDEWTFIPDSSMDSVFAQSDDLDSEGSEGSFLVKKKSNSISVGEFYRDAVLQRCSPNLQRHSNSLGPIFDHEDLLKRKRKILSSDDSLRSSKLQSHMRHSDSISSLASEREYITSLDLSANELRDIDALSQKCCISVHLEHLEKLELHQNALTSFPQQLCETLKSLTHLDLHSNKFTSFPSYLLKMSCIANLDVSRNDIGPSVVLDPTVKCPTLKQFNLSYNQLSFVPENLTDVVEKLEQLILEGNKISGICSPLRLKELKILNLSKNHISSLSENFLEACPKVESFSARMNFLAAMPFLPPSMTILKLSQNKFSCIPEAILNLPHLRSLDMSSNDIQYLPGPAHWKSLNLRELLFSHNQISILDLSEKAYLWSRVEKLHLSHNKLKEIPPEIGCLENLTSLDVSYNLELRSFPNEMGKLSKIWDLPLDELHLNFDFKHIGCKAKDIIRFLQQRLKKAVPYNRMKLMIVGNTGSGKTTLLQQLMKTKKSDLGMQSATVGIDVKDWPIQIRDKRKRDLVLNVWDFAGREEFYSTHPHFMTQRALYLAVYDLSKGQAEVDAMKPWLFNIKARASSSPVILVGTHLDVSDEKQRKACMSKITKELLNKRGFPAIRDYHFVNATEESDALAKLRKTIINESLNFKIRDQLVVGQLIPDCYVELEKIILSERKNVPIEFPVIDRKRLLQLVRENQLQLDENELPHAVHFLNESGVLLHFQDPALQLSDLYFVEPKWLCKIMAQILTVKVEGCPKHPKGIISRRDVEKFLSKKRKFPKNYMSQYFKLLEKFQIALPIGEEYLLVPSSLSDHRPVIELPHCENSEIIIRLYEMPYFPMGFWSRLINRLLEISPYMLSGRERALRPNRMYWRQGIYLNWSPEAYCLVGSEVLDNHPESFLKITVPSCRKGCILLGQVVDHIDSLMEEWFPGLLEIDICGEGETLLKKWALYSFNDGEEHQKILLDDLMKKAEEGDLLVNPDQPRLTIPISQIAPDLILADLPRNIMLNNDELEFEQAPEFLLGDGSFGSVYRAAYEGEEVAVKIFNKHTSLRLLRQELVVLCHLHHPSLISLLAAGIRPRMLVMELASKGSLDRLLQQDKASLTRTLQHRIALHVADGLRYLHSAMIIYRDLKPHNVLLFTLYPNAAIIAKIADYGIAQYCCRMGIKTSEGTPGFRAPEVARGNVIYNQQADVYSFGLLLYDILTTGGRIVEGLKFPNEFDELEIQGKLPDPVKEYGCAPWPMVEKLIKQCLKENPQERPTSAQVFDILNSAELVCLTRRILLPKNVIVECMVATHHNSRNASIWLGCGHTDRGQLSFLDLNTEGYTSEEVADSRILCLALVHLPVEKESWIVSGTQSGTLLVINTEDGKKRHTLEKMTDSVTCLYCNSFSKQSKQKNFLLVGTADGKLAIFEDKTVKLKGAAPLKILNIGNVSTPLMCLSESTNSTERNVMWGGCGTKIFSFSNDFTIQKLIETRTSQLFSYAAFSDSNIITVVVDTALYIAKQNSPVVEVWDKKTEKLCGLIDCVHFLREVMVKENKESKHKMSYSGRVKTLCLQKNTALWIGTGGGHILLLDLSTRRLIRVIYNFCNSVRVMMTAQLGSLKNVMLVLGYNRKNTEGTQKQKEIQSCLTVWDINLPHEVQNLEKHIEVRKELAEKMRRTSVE

SMILES	Dmax [1] [%]	DC50 [2] [nM]	DC50 [3] [nM]	Dmax [4] [%]	other results
CC1(Oc2cc3c(-c4cc(N5CCN(C[C@H]6CC[C@H](OC7CCN(c8ccc9c(c8F)CN(C8CCC(=O)NC8=O)C9=O)CC7)CC6)CC5)ncn4)n[nH]c3cc2F)CC1 (stereo partly shown) [Compound 260, 3-[4-fluoro-1-oxo-5-(4-{[(1r,4r)-4-[(4-{6-[6-fluoro-5-(1-methylcyclopropoxy)-1H-indazol-3-yl]pyrimidin-4-yl}piperazin-1-yl)methyl]cyclohexyl]oxy}piperidin-1-yl)-2,3-dihydro-1H-isoindol-2-yl]piperidine-2,6-dione]	50 to 70	< 10			
CC1(Oc2cc3c(-c4cc(N5CCC(O[C@H]6CC[C@H](CN7CCN(c8ccc9c(c8F)CN(C8CCC(=O)NC8=O)C9=O)CC7)CC6)CC5)ncn4)n[nH]c3cn2)CC1 (stereo partly shown) [Compound 254, 3-[4-fluoro-1-oxo-5-(4-{[(1r,4r)-4-[(1-{6-[5-(1-methylcyclopropoxy)-1H-pyrazolo[3,4-c]pyridin-3-yl]pyrimidin-4-yl}piperidin-4-yl)oxy]cyclohexyl]methyl}piperazin-1-yl)-2,3-dihydro-1H-isoindol-2-yl]piperidine-2,6-dione]			< 10	50 to 70	
CC1(Oc2ccc3[nH]nc(-c4cc(N5CCC(CN6CC[C@@H](OC7CCN(c8ccc9c(c8F)CN(C8CCC(=O)NC8=O)C9=O)CC7)CC6(C)C)CC5)ncn4)c3c2)CC1 (stereo partly drawn) [Compound 310, 3-[5-(4-{[(4R)-2,2-dimethyl-1-[(1-{6-[5-(1-methylcyclopropoxy)-1H-indazol-3-yl]pyrimidin-4-yl}piperidin-4-yl)methyl]piperidin-4-yl]oxy}piperidin-1-yl)-4-fluoro-1-oxo-2,3-dihydro-1H-isoindol-2-yl]piperidine-2,6-dione]	50 to 70	< 10			
COc1c(N2CCC(O[C@H]3CCN(CC4CCN(c5cc(-c6n[nH]c7ccc(OC8(C)CC8)cc67)ncn5)CC4)C(C)(C)C3)CC2)ccc2c1CN(C1CCC(=O)NC1=O)C2=O (stereo partly drawn) [Compound 316, 3-[5-(4-{[(4S)-2,2-dimethyl-1-[(1-{6-[5-(1-methylcyclopropoxy)-1H-indazol-3-yl]pyrimidin-4-yl}piperidin-4-yl)methyl]piperidin-4-yl]oxy}piperidin-1-yl)-4-methoxy-1-oxo-2,3-dihydro-1H-isoindol-2-yl]piperidine-2,6-dione]	50 to 70	< 10			
CC1(Oc2ccc3[nH]nc(-c4cc(N5CCC(CN6CCN(C[C@@H]7CCN(c8ccc9c(c8F)CN(C8CCC(=O)NC8=O)C9=O)C7)CC6)CC5)ncn4)c3c2)CC1 (stereo partly drawn) [Compound 321, 3-{4-fluoro-5-[(3S)-3-({4-[(1-{6-[5-(1-methylcyclopropoxy)-1H-indazol-3-yl]pyrimidin-4-yl}piperidin-4-yl)methyl]piperazin-1-yl}methyl)pyrrolidin-1-yl]-1-oxo-2,3-dihydro-1H-isoindol-2-yl}piperidine-2,6-dione]	50 to 70	< 10			
COc1c(N2CCC(CN3CCN(CC4CCN(c5cc(-c6n[nH]c7cnc(OC8(C)CC8)cc67)ncn5)CC4)C(C)(C)C3)CC2)ccc2c1CN(C1CCC(=O)NC1=O)C2=O (stereo not shown) [Compound 250, 3-{5-[4-({3,3-dimethyl-4-[(1-{6-[5-(1-methylcyclopropoxy)-1H-pyrazolo[3,4-c]pyridin-3-yl]pyrimidin-4-yl}piperidin-4-yl)methyl]piperazin-1-yl}methyl)piperidin-1-yl]-4-methoxy-1-oxo-2,3-dihydro-1H-isoindol-2-yl}piperidine-2,6-dione]			< 10	50 to 70	
CC1(Oc2ccc3[nH]nc(-c4cc(N5CCC(CN6CCN(CC7CCN(c8ccc9c(c8)C(=O)N(C8CCC(=O)NC8=O)C9)CC7)CC6)CC5)ncn4)c3c2)CC1 (stereo not shown) [Compound 241, 3-[6-[4-[[4-[[1-[6-[5-(1-methylcyclopropoxy)-1H-indazol-3-yl]pyrimidin-4-yl]-4-piperidyl]methyl]piperazin-1-yl]methyl]-1-piperidyl]-1-oxo-isoindolin-2-yl]piperidine-2,6-dione]			< 10	50 to 70	
C[C@H]1CN(C[C@H]2CC[C@H](OC3CCN(c4cc(-c5n[nH]c6ccc(OC7(C)CC7)cc56)ncn4)CC3)CC2)CCN1c1ccc2c(c1F)CN(C1CCC(=O)NC1=O)C2=O (stereo partly drawn) [Compound 353, 3-{4-fluoro-5-[(2S)-2-methyl-4-{[(1r,4r)-4-[(1-{6-[5-(1-methylcyclopropoxy)-1H-indazol-3-yl]pyrimidin-4-yl}piperidin-4-yl)oxy]cyclohexyl]methyl}piperazin-1-yl]-1-oxo-2,3-dihydro-1H-isoindol-2-yl}piperidine-2,6-dione]	50 to 70	< 10			
COc1c(N2CCC3(CC2)CN([C@H]2C[C@H](OC4CCN(c5cc(-c6[nH]nc7ccc(OC8(C)CC8)cc67)ncn5)CC4)C2)C3)ccc2c1CN(C1CCC(=O)NC1=O)C2=O (stereo partly shown) [Compound 315, 3-(4-methoxy-1-oxo-5-{2-[(1r,3r)-3-[(1-{6-[5-(1-methylcyclopropoxy)-2H-indazol-3-yl]pyrimidin-4-yl}piperidin-4-yl)oxy]cyclobutyl]-2,7-diazaspiro[3.5]nonan-7-yl}-2,3-dihydro-1H-isoindol-2-yl)piperidine-2,6-dione]	50 to 70	< 10			
COc1cc(N2CCC(CN3CCN(CC4CCN(c5cc(-c6n[nH]c7ccc(OC8(C)CC8)cc67)ncn5)CC4)CC3)CC2)cc2c1C(=O)N(C1CCC(=O)NC1=O)C2 (stereo not shown) [Compound 215, 3-[7-methoxy-5-[4-[[4-[[1-[6-[5-(1-methylcyclopropoxy)-1H-indazol-3-yl]pyrimidin-4-yl]-4-piperidyl]methyl]piperazin-1-yl]methyl]-1-piperidyl]-1-oxo-isoindolin-2-yl]piperidine-2,6-dione]			< 10	≥ 70	
COc1c(N2CCC(O[C@H]3CC[C@H](CN4CCN(c5cc(-c6n[nH]c7ccc(OC8(C)CC8)cc67)ncn5)CC4(C)C)CC3)CC2)ccc2c1CN(C1CCC(=O)NC1=O)C2=O (stereo partly shown) [Compound 382, 3-[4-methoxy-1-oxo-5-(4-{[(1r,4r)-4-[(2,2-dimethyl-4-{6-[5-(1-methylcyclopropoxy)-1H-indazol-3-yl]pyrimidin-4-yl}piperazin-1-yl)methyl]cyclohexyl]oxy}piperidin-1-yl)-2,3-dihydro-1H-isoindol-2-yl]piperidine-2,6-dione]			10 to 50	50 to 70	
CC1(Oc2ccc3n[nH]c(-c4cc(N5CCC(CN6CCN(CC7CCN(c8ccc(F)c9c8CN(C8CCC(=O)NC8=O)C9=O)CC7)CC6)CC5)ncn4)c3c2)CC1 (stereo not shown) [Compound 214, 3-[7-fluoro-4-[4-[[4-[[1-[6-[5-(1-methylcyclopropoxy)-2H-indazol-3-yl]pyrimidin-4-yl]-4-piperidyl]methyl]piperazin-1-yl]methyl]-1-piperidyl]-1-oxo-isoindolin-2-yl]piperidine-2,6-dione]			< 10	≥ 70	
COc1c(N2CCC(CN3CCN(CC4CCN(c5cc(-c6n[nH]c7cnc(OC8(C)CC8)cc67)ncn5)CC4)CC3)CC2)ccc2c1CN(C1CCC(=O)NC1=O)C2=O (stereo not shown) [Compound 253, 3-{4-methoxy-5-[4-({4-[(1-{6-[5-(1-methylcyclopropoxy)-1H-pyrazolo[3,4-c]pyridin-3-yl]pyrimidin-4-yl}piperidin-4-yl)methyl]piperazin-1-yl}methyl)piperidin-1-yl]-1-oxo-2,3-dihydro-1H-isoindol-2-yl}piperidine-2,6-dione]			< 10	50 to 70	
CC1(Oc2cc3c(-c4cc(N5CCC(CN6CCN(CC7CCN(c8ccc9c(c8)C(=O)N(C8CCC(=O)NC8=O)C9=O)CC7)CC6)CC5)ncn4)n[nH]c3cn2)CC1 (stereo not shown) [Compound 178, 2-(2,6-dioxo-3-piperidyl)-5-[4-[[4-[[1-[6-[5-(1-methylcyclopropoxy)-1H-pyrazolo[3,4-c]pyridin-3-yl]pyrimidin-4-yl]-4-piperidyl]methyl]piperazin-1-yl]methyl]-1-piperidyl]isoindoline-1,3-dione]					Dmax (endogenous HiBit-tagged LRRK2, HEK293 cells, 24 hours, read-out: **Endogenous WT Dmax (%)): ≥ 70%; DC50 (endogenous HiBit-tagged LRRK2, HEK293 cells, 24 hours, read-out: *Endogenous WT DC50): < 10 nM
CC1(Oc2cc3c(-c4cc(N5CCC(CN6CCN(CC7CCN(c8ccc9c(c8F)CN(C8CCC(=O)NC8=O)C9=O)CC7)CC6(C)C)CC5)ncn4)n[nH]c3cn2)CC1 (stereo not shown) [Compound 247, 3-{5-[4-({3,3-dimethyl-4-[(1-{6-[5-(1-methylcyclopropoxy)-1H-pyrazolo[3,4-c]pyridin-3-yl]pyrimidin-4-yl}piperidin-4-yl)methyl]piperazin-1-yl}methyl)piperidin-1-yl]-4-fluoro-1-oxo-2,3-dihydro-1H-isoindol-2-yl}piperidine-2,6-dione]			< 10	50 to 70	
CC1(Oc2ccc3n[nH]c(-c4cc(N5CCC(O[C@H]6C[C@H](CN7CCN(c8ccc9c(c8F)CN(C8CCC(=O)NC8=O)C9=O)CC7)C6)CC5)ncn4)c3c2)CC1 (stereo partly shown) [Compound 351, 3-[4-fluoro-1-oxo-5-(4-{[(1r,3r)-3-[(1-{6-[5-(1-methylcyclopropoxy)-2H-indazol-3-yl]pyrimidin-4-yl}piperidin-4-yl)oxy]cyclobutyl]methyl}piperazin-1-yl)-2,3-dihydro-1H-isoindol-2-yl]piperidine-2,6-dione]	50 to 70	< 10			
COc1c(N2CC3(CCN(CCOC4CCN(c5cc(-c6n[nH]c7ccc(OC8(C)CC8)cc67)ncn5)CC4)CC3(F)F)C2)ccc2c1CN(C1CCC(=O)NC1=O)C2=O (stereo not shown) [Compound 357, 3-[5-(5,5-difluoro-7-{2-[(1-{6-[5-(1-methylcyclopropoxy)-1H-indazol-3-yl]pyrimidin-4-yl}piperidin-4-yl)oxy]ethyl}-2,7-diazaspiro[3.5]nonan-2-yl)-4-methoxy-1-oxo-2,3-dihydro-1H-isoindol-2-yl]piperidine-2,6-dione]			< 10	50 to 70	
